Literature values as cited in patent US7351710B2, “Preparation of amorphous form of indiplon” (Mai De Ltd., priority 2005, dated 2008).

Structure (SMILES)	solubility in water (in words) (water)	solubility (in water, crystalline form) [µg/mL]
CC(=O)N(C)c1cccc(-c2ccnc3c(C(=O)c4cccs4)cnn23)c1 [Indiplon, N-Methyl-N-[3-[3-[2-thienylcarbonyl]pyrazolo[1,5-a]pyrimidin-7-yl]phenyl]acetamide]	practically insoluble	
CC(=O)N(C)c1cccc(-c2ccnc3c(C(=O)c4cccs4)cnn23)c1 [crystalline indiplon, N-Methyl-N-[3-[3-[2-thienylcarbonyl]pyrazolo[1,5-a]pyrimidin-7-yl]phenyl]acetamide]		20 to 30
